From patent publication US5883294A, “Selective thyroid hormone analogs” (The Regeants of the University of California, priority 1997, dated 1999)

Target: T1, TR α1 (Rattus norvegicus, UniProt P63059)
T1 construct: made in house; host or cells: E. coli
Experiment: Receptor Binding Assays of TR Ligands ([125I]T3 displacement), TR α1

T1 sequence (P63059 other isoform, or with tags, fused parts or gaps): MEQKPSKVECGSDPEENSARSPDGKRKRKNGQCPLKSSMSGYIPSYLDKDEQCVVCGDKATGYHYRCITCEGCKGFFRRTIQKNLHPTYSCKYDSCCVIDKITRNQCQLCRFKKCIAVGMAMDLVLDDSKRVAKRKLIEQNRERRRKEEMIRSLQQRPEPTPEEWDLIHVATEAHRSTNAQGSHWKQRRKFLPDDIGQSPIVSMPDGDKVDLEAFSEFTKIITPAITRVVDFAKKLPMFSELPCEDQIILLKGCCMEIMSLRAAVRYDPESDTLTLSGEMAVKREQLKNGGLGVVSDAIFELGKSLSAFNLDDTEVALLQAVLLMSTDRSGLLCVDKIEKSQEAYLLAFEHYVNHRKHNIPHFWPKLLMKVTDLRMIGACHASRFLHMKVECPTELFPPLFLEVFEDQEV

Molecule `Cc1cc(OCC(=O)O)cc(C)c1Cc1ccc(O)c(C(C)C)c1` [GC1, [3,5-dimethyl-4-(4'-hydroxy-3'-isopropylbenzyl)-phenoxy] acetic acid] has an IC50 of 20 nM.
